{"source": "patent US20090117559A1", "about": "“Methods for Determining Probability of an Adverse or Favorable Reaction to a Niacin Receptor Agonist” (priority 2005, published 2009)", "origin": "cited, not measured here", "key": {"[1]": {"conditions": "post administration of niacin by injection"}}, "data": [{"smiles": "O=C(O)c1cccnc1", "note": "[niacin, nicotinic acid]", "values": [{"measurement": "patients who cease taking niacin treatment within days after initiating therapy", "setting": "human, in vivo", "value": "30-40%"}, {"measurement": "subjects experiencing flushing in response to nicotinic acid therapy", "setting": "unsegmented (general) population, Shepherd et al. 2005", "value": "70-80%"}, {"measurement": "time after which the flushing reaction declines significantly", "setting": "[1]", "value": "about 30 minutes"}, {"measurement": "time at which the flushing reaction peaks", "setting": "[1]", "value": "about 3 minutes"}]}]}
